Reference: patent publication US6939863B2, “Prevention of atherosclerosis and restenosis” (priority 2002, dated 2005)

Legend:
[1] = summary table; cited from earlier work
collagen expression = conditions: summary table; cited from earlier work
[2] = summary table; cited from earlier work; remark: listed apart in the source
restenosis [3] = conditions: summary table; cited from earlier work
endothelial cells = conditions: summary table; cited from earlier work; note: key: '+' represents the ability; a '−' represents the inability of conversion from a non-contracile phenotype to a contractile phenotype in an in vitro condition; A '↓' represents decrease; a '?' represents no data is available
smooth muscle cells = conditions: conversion from non-contractile to contractile phenotype in vitro; cited from earlier work
restenosis [4] = conditions: summary table; cited from earlier work; remark: listed apart in the source
restenosis [5] = conditions: summary table; cited from earlier work; remark: listed apart in the source
[6] = test system: rat vascular smooth muscle cells; experiment: [methyl-3H]thymidine incorporation into VSMCs; format: cell-based; conditions: concentration-dependent
Experimental: (§1) Rat vascular smooth muscle cells (VSMCs) (passages 5-10) were prepared from Sprague-Dawley rats and cultured in Dulbecco's modified Eagle's medium (DMEM) supplemented with 10% fetal bovine serum (FBS) as previously described (Kirschenlohr et al, in “Human Cell Culture Protocols”, New Jersey, Humana Press Inc, 1996, pp. 318-335). Human endothelial cells from umbilical veins were prepared as described (Morgan, in “Human Cell Culture Protocols”, New Jersey, Humana Press Inc, 1996, pp. 101-152)
(§2) Rat vascular smooth muscle cells and human endothelial cells were plated at a density of 10,000 cells per square centimeter in 24-well plates. After 24 hours, cells at 70-80% confluency were treated with propylthiouracil dissolved in 100% dimethylsulfoxide (DMSO) at final concentrations of from 0.05 millimolar to 15 millimolar, or with methimazole (Sigma, St. Louis, Mo.) dissolved in water at the concentrations of from 0.01 millimolar to 1 millimolar for 24-72 hours. Cell numbers were visually counted using a hemocytometer. For the thymidine incorporation study, cells were deprived of serum for 36 hours and labeled with [methyl-^3H]thymidine at […] per milliliter for 12-24 hours after synchronization. Thymidine incorporation was then measured (Newby and George, 1996, Curr. Opin. Cardiol., 11:547). Effects of propylthiouracil and methimazole on the number of vascular smooth muscle cells and human endothelial cells and thymidine incorporation by vascular smooth muscle cells were each expressed as a percentage of the number and thymidine incorporation of control cells maintained in medium containing 0.1% DMSO as vehicle.

[7] = test system: rat vascular smooth muscle cells; experiment: Vascular smooth muscle cell proliferation (cell number); format: cell-based; conditions: concentration-dependent; PTU 0.05-5 millimolar, methimazole 0.01-1 millimolar
Experimental: as §1, §2
Throughout, for Anti-coagulation: key: '+' represents the ability; a '−' represents the inability of conversion from a non-contracile phenotype to a contractile phenotype in an in vitro condition; A '↓' represents decrease; a '?' represents no data is available.
Throughout, for Anti-inflammation: key: '+' represents the ability; a '−' represents the inability of conversion from a non-contracile phenotype to a contractile phenotype in an in vitro condition; A '↓' represents decrease; a '?' represents no data is available.
Throughout, for Effect on animal models of restenosis, Rat: key: '+' represents the ability; a '−' represents the inability of conversion from a non-contracile phenotype to a contractile phenotype in an in vitro condition; A '↓' represents decrease; a '?' represents no data is available.

Molecule | Anti-inflammation [1] | Collagen expression (collagen expression) | Anti-coagulation [2] | Effect on animal models of restenosis, Rat (restenosis [3]) | Endothelial cellular function (endothelial cells) | Phenotype change (smooth muscle cells) | Effect on animal models of restenosis, Pig (restenosis [4]) | Effect on restenosis, Human (restenosis [5]) | Inhibition of thymidine incorporation into VSMCs [6] | Inhibition of growth/proliferation of VSMCs [7]
CC1=C(/C=C/C(C)=C/C=C/C(C)=C/C(=O)O)C(C)(C)CCC1 [All-trans retinoic acid] | − | ↑ | − | + | + | + |  |  |  | 
CC(=O)O[C@H]1C(=O)[C@@]2(C)[C@H]([C@H](OC(=O)c3ccccc3)[C@]3(O)C[C@H](OC(=O)[C@H](O)[C@@H](NC(=O)c4ccccc4)c4ccccc4)C(C)=C1C3(C)C)[C@]1(OC(C)=O)CO[C@@H]1C[C@@H]2O [Paclitaxel] |  |  |  | + | − |  | + | + |  | 
Cn1cc[nH]c1=S [methimazole] |  |  |  |  |  |  |  |  | but not methimazole (MMI), significantly inhibited | but not methimazole (MMI), significantly inhibited
Heparin | − |  | + | + | − | − | + | − |  | 
